Laboratory results taken from patent US5780605A, “6,9-bridged erythromycin derivatives” (Abbott Laboratories, priority 1997, dated 1998).

Columns and labels:
Assay in all cases: in vitro antibacterial activity (MIC), BHI agar dilution
Assay type in all cases: cell-based
[1] = system: Streptococcus bovis A-5169; conditions: S. bovis A-5169, 35-37° C., 20 to 24 hours
Method: (§1) Representative compounds of the present invention were assayed in vitro for antibacterial activity as follows: Twelve petri dishes containing successive aqueous dilutions of the test compound mixed with 10 mL of sterilized Brain Heart Infusion (BHI) agar (Difco 0418-01-5) were prepared. Each plate was inoculated with 1:100 (or 1:10 for slow-growing strains, such as Micrococcus and Streptococcus) dilutions of up to 32 different microorganisms, using a Steers replicator block. […] In addition, a control plate, using BHI agar containing no test compound, was prepared and incubated at the beginning and end of each test.
(§2) An additional plate containing a compound having known susceptibility patterns for the organisms being tested and belonging to the same antibiotic class as the test compound was also prepared and incubated as a further control, as well as to provide test-to-test comparability.
(§3) After incubation, each plate was visually inspected. The minimum inhibitory concentration (MIC) was defined as the lowest concentration of drug yielding no growth, a slight haze, or sparsely isolated colonies on the inoculum spot as compared to the growth control.

[2] = system: Enterococcus faecium ATCC 8043; conditions: E. faecium ATCC 8043, 35-37° C., 20 to 24 hours
Method: as §1, §2, §3

[3] = system: Mycobacterium smegmafis ATCC 114; conditions: 35-37° C., 20 to 24 hours
Method: as §1, §2, §3

[4] = system: Staphylococcus aureus ATCC 6538P; conditions: S. aureus ATCC 6538P, 35-37° C., 20 to 24 hours
Method: as §1, §2, §3

[5] = system: Streptococcus Pheumoniae 5649; conditions: 35-37° C., 20 to 24 hours
Method: as §1, §2, §3

[6] = system: Micrococcus luteus ATCC 9341; conditions: M. luteus ATCC 9341, 35-37° C., 20 to 24 hours
Method: as §1, §2, §3

Escherichia coli DC-2 = conditions: E. coli DC-2, 35-37° C., 20 to 24 hours
Method: as §1, §2, §3

[7] = system: Micrococcus luteus ATCC 4698; conditions: M. luteus ATCC 4698, 35-37° C., 20 to 24 hours
Method: as §1, §2, §3

Candida albicans CCH 442 = conditions: C. albicans CCH 442, 35-37° C., 20 to 24 hours
Method: as §1, §2, §3

[8] = system: Streptococcus agalactiae CMX 508; conditions: S. agalactiae CMX 508, 35-37° C., 20 to 24 hours
Method: as §1, §2, §3

[9] = system: Staphylococcus aureus CMX 642A; conditions: S. aureus CMX 642A, 35-37° C., 20 to 24 hours
Method: as §1, §2, §3

[10] = system: Streptococcus Pheumoniae ATCC6303; conditions: 35-37° C., 20 to 24 hours
Method: as §1, §2, §3

[11] = system: Staphylococcus epidermidis 3519; conditions: S. epidermidis 3519, 35-37° C., 20 to 24 hours
Method: as §1, §2, §3

[12] = system: Staphylococcus aureus NCTC10649M; conditions: S. aureus NCTC10649M, 35-37° C., 20 to 24 hours
Method: as §1, §2, §3

[13] = system: Staphylococcus aureus A-5278; conditions: S. aureus A-5278, 35-37° C., 20 to 24 hours
Method: as §1, §2, §3

[14] = system: Staphylococcus aureus 1775; conditions: S. aureus 1775, 35-37° C., 20 to 24 hours
Method: as §1, §2, §3

Escherichia coli JUHL = conditions: E. coli JUHL, 35-37° C., 20 to 24 hours
Method: as §1, §2, §3

[15] = system: Streptococcus pyogenes 930; conditions: S. pyogenes 930, 35-37° C., 20 to 24 hours
Method: as §1, §2, §3

[16] = system: Haemophilis Influenzae DILL AMP R; conditions: 35-37° C., 20 to 24 hours
Method: as §1, §2, §3

[17] = system: Staphylococcus aureus CMX 553; conditions: S. aureus CMX 553, 35-37° C., 20 to 24 hours
Method: as §1, §2, §3

[18] = system: Streptococcus Pheumoniae GYR 1171; conditions: 35-37° C., 20 to 24 hours
Method: as §1, §2, §3

[19] = system: Streptococcus pyogenes PIU 2548; conditions: S. pyogenes PIU 2548, 35-37° C., 20 to 24 hours
Method: as §1, §2, §3

[20] = system: Streptococcus pyogenes EES61; conditions: S. pyogenes EES61, 35-37° C., 20 to 24 hours
Method: as §1, §2, §3

[21] = system: Staphylococcus aureus A5177; conditions: S. aureus A5177, 35-37° C., 20 to 24 hours
Method: as §1, §2, §3

[22] = system: Nocardia Asteroides ATCC9970; conditions: 35-37° C., 20 to 24 hours
Method: as §1, §2, §3

[23] = system: Streptococcus Pheumoniae 5979; conditions: 35-37° C., 20 to 24 hours
Method: as §1, §2, §3

Escherichia coli SS = conditions: E. coli SS, 35-37° C., 20 to 24 hours
Method: as §1, §2, §3

Row | Compound | MIC (minimum inhibitory concentration) [1] | MIC (minimum inhibitory concentration) [2] | MIC (minimum inhibitory concentration) [3] | MIC (minimum inhibitory concentration) [4] | MIC (minimum inhibitory concentration) [5] | MIC (minimum inhibitory concentration) [6] | MIC (minimum inhibitory concentration) (Escherichia coli DC-2) | MIC (minimum inhibitory concentration) [7] | MIC (minimum inhibitory concentration) (Candida albicans CCH 442) | MIC (minimum inhibitory concentration) [8] | MIC (minimum inhibitory concentration) [9] | MIC (minimum inhibitory concentration) [10] | MIC (minimum inhibitory concentration) [11] | MIC (minimum inhibitory concentration) [13] | MIC (minimum inhibitory concentration) [14] | MIC (minimum inhibitory concentration) (Escherichia coli JUHL) | MIC (minimum inhibitory concentration) [15] | MIC (minimum inhibitory concentration) [16] | MIC (minimum inhibitory concentration) [17] | MIC (minimum inhibitory concentration) [18] | further results
1 | CC[C@H]1OC(=O)[C@H](C)[C@@H](O[C@H]2C[C@@](C)(OC)[C@@H](O)[C@H](C)O2)[C@H](C)[C@@H](O[C@@H]2O[C@H](C)C[C@H](N(C)C)[C@H]2O)[C@](C)(O)C[C@@H](C)C(=O)[C@H](C)[C@@H](O)[C@]1(C)O [Ery. A, Erythromycin A, reference compound] | 0.02 | 0.05 | 3.1 | 0.2 | 16 | 0.05 | > 100 | 0.2 | > 100 | 0.05 | 0.39 | 0.06 | 0.39 | > 100 | > 100 | > 100 | > 100 | 4 | 0.39 | 0.06 | MIC (minimum inhibitory concentration) [12]: 0.39; MIC (minimum inhibitory concentration) [19]: 6.2; MIC (minimum inhibitory concentration) [20]: 0.05; MIC (minimum inhibitory concentration) [21]: 3.1
2 | CC[C@H]1OC(=O)[C@H](C)[C@@H](O[C@H]2C[C@@](C)(OC)[C@@H](O)[C@H](C)O2)[C@H](C)[C@@H](O[C@@H]2O[C@H](C)C[C@H](N(C)C)[C@H]2O)[C@@]2(C)C[C@@H](C)C(=NOCO2)[C@H](C)[C@@H](O)[C@]1(C)O [Example 1] | 0.39 | 1.56 | 1.56 | 6.2 | 4 | 0.2 | > 100 | 1.56 | > 100 | 0.39 | 12.5 | 1 | 6.2 | > 100 | > 100 | > 100 | > 100 | 32 | 6.2 | 0.5 | MIC (minimum inhibitory concentration) [22]: 0.39; MIC (minimum inhibitory concentration) [23]: > 64; MIC (minimum inhibitory concentration) (Escherichia coli SS): 1.56; MIC (minimum inhibitory concentration) [12]: 6.2; MIC (minimum inhibitory concentration) [19]: 6.2; MIC (minimum inhibitory concentration) [20]: 0.39; MIC (minimum inhibitory concentration) [21]: > 100
3 | CC[C@H]1OC(=O)[C@H](C)[C@@H](O[C@H]2C[C@@](C)(OC)[C@@H](O)[C@H](C)O2)[C@H](C)[C@@H](O[C@@H]2O[C@H](C)C[C@H](N(C)C)[C@H]2O)[C@@]2(C)C[C@@H](C)C(=NOCO2)[C@H](C)[C@H]2OC(=O)O[C@@]21C [Example 2] | 0.02 | 0.1 | 3.1 | 0.39 | 4 | 0.1 | 25 | 0.39 | > 100 | 0.05 | 0.39 | 0.06 | 0.39 | > 100 | > 100 | 50 | > 100 | 2 | 0.78 | 0.03 | MIC (minimum inhibitory concentration) [22]: 0.1; MIC (minimum inhibitory concentration) [23]: > 128; MIC (minimum inhibitory concentration) (Escherichia coli SS): 0.78; MIC (minimum inhibitory concentration) [19]: 3.1; MIC (minimum inhibitory concentration) [20]: <= 0.005; MIC (minimum inhibitory concentration) [21]: 3.1
4 | CC[C@H]1OC(=O)[C@H](C)C(=O)[C@H](C)[C@@H](O[C@@H]2O[C@H](C)C[C@H](N(C)C)[C@H]2O)[C@@]2(C)C[C@@H](C)C(=NOCO2)[C@H](C)[C@H]2OC(=O)O[C@@]21C [Example 3] | 0.2 | 0.78 | 25 | 3.1 | 0.5 | 0.39 | > 100 | 0.78 | > 100 | 0.78 | 3.1 | 1 | 3.1 | > 100 | > 100 | > 100 | > 100 | 16 | 3.1 | 0.25 | MIC (minimum inhibitory concentration) [22]: 0.78; MIC (minimum inhibitory concentration) [23]: > 128; MIC (minimum inhibitory concentration) (Escherichia coli SS): 0.78; MIC (minimum inhibitory concentration) [12]: 3.1; MIC (minimum inhibitory concentration) [19]: 0.78; MIC (minimum inhibitory concentration) [20]: 0.39; MIC (minimum inhibitory concentration) [21]: 3.1
